{
  "source": "paper PMC8667612",
  "about": "(Journal of medicinal chemistry, 2021)",
  "key": {"[1]": {"target": "T1, N. fowleri CYP51 (Naegleria fowleri, UniProt A0A6A5BCR7, E4K/I5A/S2A, form not given)"}, "[2]": {"target": "T1, N. fowleri CYP51", "assay_type": "binding", "settings": "Type I spectral response, ~2 μM P450"}, "[3]": {"target": "T1, N. fowleri CYP51", "assay_type": "biochemical", "settings": "0.5 μM P450, 60 s at 37 °C, sterol 3–50 μM"}, "[4]": {"settings": "cited from earlier work"}, "[5]": {"assay": "Blood–brain permeability assay, multiple oral doses", "assay_type": "in vivo, BALB/c mice", "settings": "mice, oral gavage 25 mg/kg twice a day for 5 days, samples 4 h after each administration"}, "[6]": {"test_system": "N. fowleri trophozoites", "assay": "N. fowleri cellular growth inhibition assay", "assay_type": "cell-based", "settings": "Naegleria fowleri, 96 h, read-out: minimal inhibitory concentration (MIC)"}},
  "note": "“And” between values parts separate entries of the source, which are not always exact repeats. Equal entries are not always repeated.",
  "data": [
    {"smiles": "CC[C@@H]([C@H](C)O)n1ncn(-c2ccc(N3CCN(c4ccc(OC[C@@H]5CO[C@@](Cn6cncn6)(c6ccc(F)cc6F)C5)cc4)CC3)cc2)c1=O", "note": "[posaconazole, reference compound]", "values": [
      {"measurement": "concentration giving complete inhibition of N. fowleri CYP51 activity", "setting": "[1]", "value": 2.0, "unit": "µM"}
    ]},
    {"smiles": "O=C(N[C@@H](Cn1ccnc1)c1ccc(-c2ccc(F)cc2)cc1F)c1ccc(-c2nnc(-c3ccccc3)o2)cc1", "note": "[VFV, (R)-N-(1-(3,4’-difluoro-[1,1’-biphenyl]-4-yl)-2-(1H-imidazol-1-yl)-ethyl)-4-(5-phenyl-1,3,4-oxadiazol-2-yl)benzamide]", "values": [
      {"measurement": "concentration giving complete inhibition of N. fowleri CYP51 activity", "setting": "[1]", "value": 6.0, "unit": "µM"}
    ]},
    {"smiles": "CC(C)=CCC[C@@H](C)[C@H]1CC[C@@]2(C)C3=C(CC[C@]12C)[C@@]1(C)CC[C@H](O)[C@H](C)[C@@H]1CC3", "note": "[norlanosterol]", "values": [
      {"measurement": "low- to high-spin state transition in the heme iron", "setting": "[2]", "value": 94, "unit": "%"}
    ]},
    {"smiles": "O=C(N[C@@H](Cn1ccnc1)c1ccc(Cl)cc1Cl)c1ccc(-c2nnc(-c3ccccc3)o2)cc1", "note": "[VNI, (R)-N-(1-(2,4-dichlorophenyl)-2-(1H-imidazol-1-yl)-ethyl)-4-(5-phenyl-1,3,4-oxadiazol-2-yl)benzamide]", "values": [
      {"measurement": "concentration giving complete inhibition of N. fowleri CYP51 activity", "setting": "[1]", "value": 50, "unit": "µM"}
    ]},
    {"smiles": "CC(C)=CCC[C@@H](C)[C@H]1CC[C@@]2(C)C3=C(CC[C@]12C)[C@@]1(C)CC[C@H](O)C(C)(C)[C@@H]1CC3", "note": "[lanosterol]", "values": [
      {"measurement": "low- to high-spin state transition in the heme iron", "setting": "[2]", "value": 70, "unit": "%"},
      {"measurement": "kcat", "setting": "[3]", "value": 1.07, "unit": "s⁻¹"}
    ]},
    {"smiles": "O=C(N[C@@H](Cn1ccnc1)c1ccc(Cl)cc1Cl)c1ccc(-c2nnc(-c3ccc(C(F)(F)F)c(F)c3)o2)cc1", "note": "[FCF3-VNI, (R)-N-(1-(2,4-dichlorophenyl)-2-(1H-imidazol-1-yl)ethyl)-4-(5-(3-fluoro-4-(trifluoromethyl)phenyl)-1,3,4-oxadiazol-2-yl)benzamide]", "values": [
      {"measurement": "concentration giving complete inhibition of N. fowleri CYP51 activity", "setting": "[1]", "value": "> 50", "unit": "µM"}
    ]},
    {"smiles": "O=C(N[C@@H](Cn1ccnc1)c1ccc(Cl)cc1Cl)c1ccc(-c2nnc(-c3ccc(F)c(F)c3)o2)cc1", "note": "[FF-VNI, (R)-N-(1-(2,4-dichlorophenyl)-2-(1H-imidazol-1-yl)-ethyl)-4-(5-(3,4-difluorophenyl)-1,3,4-oxadiazol-2-yl)-benzamide]", "values": [
      {"measurement": "NOAEL", "setting": "[4]", "value": "> 200", "unit": "mg/kg"},
      {"measurement": "concentration giving complete inhibition of N. fowleri CYP51 activity", "setting": "[1]", "value": 6, "unit": "µM"},
      {"measurement": "average concentration in the brain", "setting": "[5]", "value": "3.5 ± 0.3", "unit": "µM"},
      {"measurement": "MIC", "setting": "[6]", "value": "2.7 µM and 1.5 µg/mL"}
    ]},
    {"smiles": "C=C(CC[C@@H](C)[C@H]1CC[C@@]2(C)C3=C(CC[C@]12C)[C@@]1(C)CC[C@H](O)[C@@H](C)[C@@H]1CC3)C(C)C", "note": "[obtusifoliol]", "values": [
      {"measurement": "low- to high-spin state transition in the heme iron", "setting": "[2]", "value": 90, "unit": "%"},
      {"measurement": "kcat", "setting": "[3]", "value": 0.433, "unit": "s⁻¹"}
    ]},
    {"smiles": "CC(C)=CCC[C@@H](C)[C@H]1CC[C@@]2(C)[C@@H]3CC[C@H]4C(C)(C)[C@@H](O)CC[C@@]45C[C@@]35CC[C@]12C", "note": "[cycloartenol]", "values": [
      {"measurement": "low- to high-spin state transition in the heme iron", "setting": "[2]", "value": 25, "unit": "%"}
    ]},
    {"smiles": "O=C(N[C@@H](Cn1ccnc1)c1c(F)cc(-c2ccc(F)cc2)cc1F)c1ccc(-c2nnc(-c3ccccc3)o2)cc1", "note": "[F-VFV, (R)-N-(2-(1H-imidazol-1-yl)-1-(3,4’,5-trifluoro-[1,1’-biphenyl]-4-yl)ethyl)-4-(5-phenyl-1,3,4-oxadiazol-2-yl)benzamide]", "values": [
      {"measurement": "NOAEL", "setting": "[4]", "value": "> 200", "unit": "mg/kg"},
      {"measurement": "concentration giving complete inhibition of N. fowleri CYP51 activity", "setting": "[1]", "value": 3.0, "unit": "µM"},
      {"measurement": "average concentration in the brain", "setting": "[5]", "value": "2.2 ± 0.2", "unit": "µM"},
      {"measurement": "MIC", "setting": "[6]", "value": "3.3 µM and 1.9 µg/mL"}
    ]}
  ]
}
